The values that follow come from patent publication US11952361B1, “2-(1-(3-(dimethylamino)propyl)-4,5-diphenyl-1H-imidazol-2-yl) pyridin-3-ol as an antitumor and antimicrobial compound” (KING FAISAL UNIVERSITY, priority 2023, dated 2024).

The subject of series [1] is human prostate cancer cells (PC3). The series is described as follows: Cytotoxicity by SRB assay, PC3 cells. The format is cell-based. As to conditions: 0.01 μM to 100 μM, 72 h. As to the method:
(§1) The human prostate cancer cells (PC3) and human osteosarcoma cells (MG-63) were obtained from Nawah Scientific Inc. (Mokatam, Cairo, Egypt) and cultured in DMEM (Dulbecco's modified eagle's medium), Gibco, USA, supplemented with fetal bovine serum (FBS) at a concentration of 10% and […]. of penicillin and streptomycin (PS). The Cells were incubated at 37° C. in a humidified environment that contained 5% CO2.
(§2) Cells were seeded in 96-well plates as aliquots of 100 μL cell suspension and incubated in a complete media for 24 h. afterward, cells were treated with 2-(1-(3-(Dimethylanino)propyl)-4,5-diphenyl-1H-imidazol-2-yl)pyridin-3-ol at diverse concentrations ranging from 0.01 μM to 100 μM for 72 h. Then, cells were fixed at 4° C. for one hour with 150 μL of 10% trichloroacetic acid (TCA). After washing the cells five times with distilled water, 70 μL of sulforhodamine (SRB) solution (0.4% w/v) was added and incubated for 10 min at room temperature in a dark place. […] Then, 150 μL of Tris pH 10.5 (10 mM) was added, and the absorbance was measured at 540 nm using a BMG LABTECH®-FiLJOstar Omega microplate reader (Ortenberg, Germany). Half maximal inhibitory concentrations (IC50) values were calculated for each experiment using GraphPad Prism 6 software. […]
(§3) The inhibition was calculated using the following equation: Inhibition %=100−Average Viability
In general terms: The SRB assay estimates cell density from bound dye.

For series [2], the system named is human osteosarcoma cells (MG-63). The series is described as follows: Cytotoxicity by SRB assay, MG-63 cells. Format: cell-based. The note with it: 0.01 μM to 100 μM, 72 h. Here is the method: as §1, §2, §3

For the molecule `CN(C)CCCn1c(-c2ncccc2O)nc(-c2ccccc2)c1-c1ccccc1` [2-(1-(3-(Dimethylamino)propyl)-4,5-diphenyl-1H-imidazol-2-yl)pyridin-3-ol], the melting point (commonly the temperature of the solid-liquid transition) was 133 to 135 °C. Moreover, the antiproliferative activity entry in series [1] was “excellent antiproliferative activities”. Also, the antiproliferative activity entry in series [2] is reported as “excellent antiproliferative activities”.
